Series [1] deals with T1, full-length beta-Catenin (Uniprot ID P35222) (Homo sapiens, UniProt P35222).
T1 construct: 10 nM full-length beta-Catenin (Uniprot ID P35222)
T1 sequence (P35222 1-781): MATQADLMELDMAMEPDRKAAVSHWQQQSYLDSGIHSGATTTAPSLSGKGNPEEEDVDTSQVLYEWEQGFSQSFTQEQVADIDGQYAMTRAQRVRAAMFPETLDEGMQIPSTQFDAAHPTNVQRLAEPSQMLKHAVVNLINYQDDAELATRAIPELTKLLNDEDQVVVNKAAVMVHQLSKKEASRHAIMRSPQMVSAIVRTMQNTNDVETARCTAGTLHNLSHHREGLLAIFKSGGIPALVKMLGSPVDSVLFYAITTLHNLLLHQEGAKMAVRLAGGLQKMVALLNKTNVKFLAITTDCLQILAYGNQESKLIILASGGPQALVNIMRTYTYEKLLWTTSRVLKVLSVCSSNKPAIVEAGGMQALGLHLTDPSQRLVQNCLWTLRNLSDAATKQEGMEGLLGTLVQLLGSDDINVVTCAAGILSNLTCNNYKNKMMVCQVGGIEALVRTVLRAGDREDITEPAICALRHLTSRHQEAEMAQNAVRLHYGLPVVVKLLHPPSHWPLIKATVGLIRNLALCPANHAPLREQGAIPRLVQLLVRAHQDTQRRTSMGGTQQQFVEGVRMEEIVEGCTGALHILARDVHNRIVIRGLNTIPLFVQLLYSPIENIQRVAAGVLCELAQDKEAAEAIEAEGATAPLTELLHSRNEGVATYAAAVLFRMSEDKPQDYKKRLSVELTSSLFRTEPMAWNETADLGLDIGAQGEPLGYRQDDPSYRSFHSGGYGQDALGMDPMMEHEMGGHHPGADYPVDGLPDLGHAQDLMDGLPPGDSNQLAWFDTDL
The series can be described thus: Fluorescence polarization IC50 (beta-catenin / 5FAM-TCF4 10-53 competition). It counts as binding. For orientation: Fluorescence polarisation rises when a labelled molecule tumbles more slowly, as on binding a larger partner.

Series [2] deals with T2, beta-catenin/TCF4 engagement (Homo sapiens, UniProt P35222).
T2 construct: expressed in transfected cells; host or cells: HEK293
T2 sequence (P35222 1-781): T1 sequence (P35222 1-781)
The series can be described thus: Nano-BRET target engagement assay (B-cat-Halo & TCF4-Luc in HEK293 cells). It counts as cell-based. In general terms: Bioluminescence resonance energy transfer reports proximity on the nanometre scale.

The test system of series [3] is TCF/LEF luciferase Reporter in DLD1 cells. The series can be described thus: TCF reporter assay (DLD1 TCF/LEF luciferase reporter, Bright-Glo). It counts as cell-based. The method in brief: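 Readouts: Bright-Glo luciferase for reporter signal and CellTiter-Glo for cell viability, with absolute IC50 derived. The reporter clone came from lentiviral TCF/LEF-luciferase transduction of DLD1 cells, seeded 5000 cells/well in RPMI with 4% FBS and exposed overnight to serially diluted compounds.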

In series [4] the test system is COLO320DM cells. Format: cell-based. To be noted: read-out: COLO320DM Proliferation Abs IC50. The method in brief:
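COLO320DM cells at 250 cells/well in RPMI-1640 + 4% HI FBS, dosed after 18–22 h with a 7-point […] 1/2 dilution series from 20 uM down to 313 nM.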

Series [5] in a line: Solubility in PBS. It counts as physicochemical. The method in brief:
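Steps: ultracentrifuge the peptide PBS solution, inject the supernatant on HPLC, inject a 50 μM peptide DMSO solution as reference, then calculate solubility as area ratio (PBS/DMSO) × 50 uM.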

A short description of series [6]: CHI Log D procedure. Format: physicochemical. To be noted: pH 7.4, CHI Log D.
The mark [7] stands for this setting: fluorescence polarization, beta-catenin, read-out: FP EC50.
The mark [8] stands for this setting: read-out: DLD1 4% Abs IC50, DLD1 4%.
[9] abbreviates: absolute IC50, read-out: NanoBRET Abs IC50.
The mark [10] stands for this setting: fluorescence polarization, read-out: beta-Catenin FP IC50.
Where [11] appears, read: read-out: DLD1 4% Abs IC50, DLD1 reporter, 4%, absolute IC50.

Structures are written as SMILES. Converted amounts (≈) assume the structure as drawn. Like-named read-outs stand apart in the source and are kept apart here.

The Solubility is the concentration that dissolves in the medium under given conditions. A higher Solubility goes with a readily soluble substance. The term chromatographic logD denotes a lipophilicity value derived from retention on a column. A lower chromatographic logD goes with lower lipophilicity.

`CC(=O)N1CCC[C@]12CC=CCCCC1(CCCC=CCCCOC(=O)N3CC[C@@](C(=O)N[C@@H](Cc4ccsc4)C(=O)N[C@@H](Cc4csc5ccccc45)C(=O)N[C@@H](CCC(N)=O)C(N)=O)(C3)NC(=O)[C@H](CC(C)C)NC(=O)[C@H](Cc3ccccc3)NC(=O)[C@H](C)NC(=O)[C@H](C)NC(=O)[C@H](CC(=O)O)NC(=O)[C@H](CC(=O)O)NC1=O)NC(=O)[C@H](CC(C)(C)C)NC(=O)[C@H](CC(=O)O)NC2=O` (stereo partly drawn) [I-801, Ac-PL3-Asp-Npg-B5-Asp-Asp-Ala-Ala-Phe-Leu-PyrS2-3Thi-BztA-Gln-NH2]: the IC50 in series [1] (setting [7]) was 0.006 µM; in series [1] (read-out: beta-Catenin FP IC50), 0.007 µM; in series [2] (read-out: NanoBRET Abs IC50), 5.8 µM; in series [2] (read-out: NanoBRET IC50), 6.8 µM; in series [3] (setting [8]) it was 4.3 µM; in series [4], greater than 20 µM. The “Solubility” value in series [5] was determined as 50 µM (≈ 95.9 µg/mL). Also, the chromatographic logD in series [6] came out at 2.21.

Turning to `CC(=O)N1CCC[C@]12CC=CCCCC1(CCCC=CCCCOC(=O)N3CC[C@@](C(=O)N[C@@H](Cc4ccccc4Cl)C(=O)N[C@@H](Cc4csc5ccccc45)C(=O)N[C@@H](CCO)C(N)=O)(C3)NC(=O)[C@H](CCO)NC(=O)[C@H](Cc3ccccc3)NC(=O)[C@H](C)NC(=O)[C@H](C)NC(=O)[C@H](CN(CC(=O)O)CC(F)(F)F)NC(=O)[C@H](CC(=O)O)NC1=O)NC(=O)[C@H](CC(C)(C)C)NC(=O)[C@H](CC(=O)O)NC2=O` (stereo partly drawn) [I-993, Ac-PL3-Asp-Npg-B5-Asp-TfeGA-Ala-Ala-Phe-Hse-PyrS2-2C1F-BztA-Hse-NH2], the IC50 in series [1] (setting [7]) was 0.012 µM; in series [1] (read-out: beta-Catenin FP IC50), 0.018 µM; in series [2] (Peptide + ST-Protein (SAINT-Protein lipid), read-out: Nano-BRET Abs IC50) it was 0.9 µM; in series [2] (Peptide only, read-out: Nano-BRET Abs IC50), 7 µM; in series [2] (setting [9]), 4 µM; in series [2] (read-out: NanoBRET Abs IC50) it was 4.9 µM. Further, the IC50 came to 0.2 µM in series [3] (Peptide + ST-Protein (SAINT-Protein lipid), read-out: TCF Reporter Assay Abs IC50); 5 µM in series [3] (Peptide only, read-out: TCF Reporter Assay Abs IC50); 4.4 µM in series [3] (absolute IC50, read-out: DLD1 reporter assay Abs IC50); 1.8 µM in series [3] (setting [8]); 3.6 µM in series [4]. The same compound came in with a Solubility in series [5] (Solubility (uM)) of 41 µM (≈ 82.7 µg/mL). Also, the chromatographic logD in series [6] worked out at 2.33.

For `CC(=O)N1CCC[C@]12CC=CCCCC1(CCCC=CCCCOC(=O)N3CC[C@@](C(=O)N[C@@H](Cc4ccccc4C(F)(F)F)C(=O)N[C@@H](Cc4csc5ccccc45)C(=O)N[C@@H](CCC(N)=O)C(=O)N[C@@H](CC(C)C)C(=O)N[C@@H](Cc4ccccc4)C(N)=O)(C3)NC(=O)[C@H](CC(C)C)NC(=O)[C@H](Cc3ccccc3)NC(=O)[C@H](C)NC(=O)[C@H](C)NC(=O)[C@H](Cc3cccc(C(=O)O)c3)NC(=O)[C@H](CC(=O)O)NC1=O)NC(=O)[C@H](CC(C)(C)C)NC(=O)[C@H](CC(=O)O)NC2=O` (stereo partly drawn) [I-2381, Ac-PL3-Asp-Npg-B5-Asp-3COOHF-Ala-Ala-Phe-Leu-PyrS2-2F3MeF-BztA-Gln-Leu-Phe-NH2], the IC50 in series [1] (setting [10]) is 1.47 µM; in series [2] (setting [9]), 2.1 µM; in series [3] (setting [11]), 1.1 µM; in series [4] (COLO320DM cells, absolute IC50), greater than 20 µM.

Turning to `CC(=O)N1CCC[C@]12CC=CCCCC1(CCCC=CCCCOC(=O)N3CC[C@@](C(=O)N[C@@H](Cc4ccccc4C(F)(F)F)C(=O)N[C@@H](Cc4csc5ccccc45)C(=O)N[C@@H](CCC(N)=O)C(=O)N[C@@H](CC(C)C)C(=O)N[C@@H](Cc4c[nH]c5ccccc45)C(N)=O)(C3)NC(=O)[C@H](CC(C)C)NC(=O)[C@H](Cc3ccccc3)NC(=O)[C@H](C)NC(=O)[C@H](C)NC(=O)[C@H](Cc3cccc(C(=O)O)c3)NC(=O)[C@H](CC(=O)O)NC1=O)NC(=O)[C@H](CC(C)(C)C)NC(=O)[C@H](CC(=O)O)NC2=O` (stereo partly drawn) [I-2394, Ac-PL3-Asp-Npg-B5-Asp-3COOHF-Ala-Ala-Phe-Leu-PyrS2-2F3MeF-BztA-Gln-Leu-Trp-NH2], the IC50 is 0.535 µM in series [1] (setting [10]); 2.2 µM in series [2] (setting [9]); 0.7 µM in series [3] (setting [11]); greater than 20 µM in series [4] (COLO320DM cells, absolute IC50).

Consider `CC[C@@H]1NC(=O)[C@H](Cc2ccccc2)NC(=O)[C@H](C)NC(=O)C(C)(C)NC(=O)[C@H](Cc2cccc(C(=O)O)c2)NC(=O)[C@H](CC(=O)O)NC(=O)C2(CCCC=CCCCOC(=O)N3CC[C@@](C(=O)N[C@@H](Cc4ccccc4C(F)(F)F)C(=O)N[C@@H](Cc4csc5ccccc45)C(=O)N[C@@H](CCC(=O)N(C)C)C(=O)N[C@@H](C)C(N)=O)(C3)NC1=O)CCCC=CC[C@]1(CCCN1C(C)=O)C(=O)N[C@@H](CC(=O)O)C(=O)N[C@@H](CC(C)(C)C)C(=O)N2` (stereo partly drawn) [I-2468, Ac-PL3-Asp-Npg-B5-Asp-3COOHF-Aib-Ala-Phe-Abu-PyrS2-2F3MeF-BztA-Me2Gln-Ala-NH2], for which the IC50 in series [1] (setting [10]) was 0.038 µM; in series [2] (setting [9]) it was 6.2 µM; in series [3] (setting [11]) it was 6.4 µM; in series [4] (COLO320DM cells, absolute IC50) it was greater than 20 µM.

`CC[C@@H]1NC(=O)[C@H](Cc2ccccc2)NC(=O)[C@H](C)NC(=O)C(C)(C)NC(=O)[C@H](Cc2cccc(C(=O)O)c2)NC(=O)[C@H](CC(=O)O)NC(=O)C2(CCCC=CCCCOC(=O)N3CC[C@@](C(=O)N[C@@H](Cc4ccsc4)C(=O)N[C@@H](Cc4csc5ccccc45)C(=O)N[C@@H](CCC(=O)N(C)C)C(=O)N[C@@H](C)C(N)=O)(C3)NC1=O)CCCC=CC[C@]1(CCCN1C(C)=O)C(=O)N[C@@H](CC(=O)O)C(=O)N[C@@H](CC(C)(C)C)C(=O)N2` (stereo partly drawn) [I-2469, Ac-PL3-Asp-Npg-B5-Asp-3COOHF-Aib-Ala-Phe-Abu-PyrS2-3Thi-BztA-Me2Gln-Ala-NH2]: the IC50 came to 0.007 µM in series [1] (setting [10]); 2.3 µM in series [2] (setting [9]); 0.6 µM in series [3] (setting [11]); 5.6 µM in series [4] (COLO320DM cells, absolute IC50).

Take `CC(=O)NCCCC[C@@H]1NC(=O)[C@H](Cc2ccccc2)NC(=O)[C@H](C)NC(=O)C(C)(C)NC(=O)[C@H](Cc2cccc(C(=O)O)c2)NC(=O)[C@H](CC(=O)O)NC(=O)C2(CCCC=CCCCOC(=O)N3CC[C@@](C(=O)N[C@@H](Cc4ccsc4)C(=O)N[C@@H](Cc4csc5ccccc45)C(=O)N[C@@H](C)C(=O)N[C@@H](C)C(N)=O)(C3)NC1=O)CCCC=CC[C@]1(CCCN1C(C)=O)C(=O)N[C@@H](CC(=O)O)C(=O)N[C@@H](CC(C)(C)C)C(=O)N2` (stereo partly drawn) [I-2578, Ac-PL3-Asp-Npg-B5-Asp-3COOHF-Aib-Ala-Phe-AcLys-PyrS2-3Thi-BztA-Ala-Ala-NH2]: the IC50 in series [1] (setting [10]) was determined as 0.005 µM; in series [2] (read-out: NanoBRET Abs IC50), 5.5 µM; in series [3] (read-out: DLD1 4% Abs IC50, DLD1 reporter, 4%), 4.1 µM; in series [4] (COLO320DM cells) it was 7.7 µM.

Values taken from patent publication US20240116985A1, “STAPLED PEPTIDES AND METHODS THEREOF” (priority 2020, published 2024).
